Tests used:
Assay type in all cases: cell-based, human
[1] = tested on: melanocytes irradiated with UVB at 20 mJ/cm^2 two times (senescent melanocytes); experiment: β-galactosidase activity in senescent melanocytes after treatment with whitening material; details: 30 μM, medium changed every 3 days (4 times) from 48 h after UVB, read after two weeks, vs vehicle (DMSO) control; p<0.05 (FIG. 5a)
Method: Human primary melanocytes (Life Technologies, CA, USA) were cultured in a 5% CO2 incubator at room temperature by using M-254 medium (Gibco BRL, NY, USA) supplemented with human melanocyte growth supplement (HMGS) (Gibco BRL, NY, USA), placed on a 100 mm culture dish so that the number of cells was 2×10^5, allowed to attach to the dish wall for the night, and irradiated with UVB at a strength of 11 mJ/cm^2, 20 mJ/cm^2, and 30 mJ/cm^2 two times at an interval of 24 hours.
After UVB irradiation under the conditions of Example 1, β-galactosidase activity, which is a representative senescence index of cell, has been measured and it has been confirmed that the activity increased in proportion to the strength of UVB irradiated (FIG. 3a).
The cells determined in the most proper senescent state through the above-described Examples, namely, the cells prepared by irradiating the melanocytes with UVB at a strength of 20 mJ/cm^2 two times at an interval of 24 hours were cultured from the 48th hour after the UV ray irradiation in a medium containing Material A (melasolv, 30 μM) of a representative whitening material while changing the medium at an interval of 3 days (4 times in total). After two weeks, the β-galactosidase activity and the melanin content were compared to those of a control group (vehicle (DMSO) treated) (FIG. 5). […]

[2] = tested on: melanocytes irradiated with UVB at 20 mJ/cm^2 two times (senescent pigmentation model); experiment: melanin content in senescent melanocytes after treatment with whitening material; details: 30 μM, medium changed every 3 days (4 times) from 48 h after UVB, read after two weeks, vs vehicle (DMSO) control; p<0.05 (FIG. 5b)
Method: Human primary melanocytes (Life Technologies, CA, USA) were cultured in a 5% CO2 incubator at room temperature by using M-254 medium (Gibco BRL, NY, USA) supplemented with human melanocyte growth supplement (HMGS) (Gibco BRL, NY, USA), placed on a 100 mm culture dish so that the number of cells was 2×10^5, allowed to attach to the dish wall for the night, and irradiated with UVB at a strength of 11 mJ/cm^2, 20 mJ/cm^2, and 30 mJ/cm^2 two times at an interval of 24 hours. The melanocytes were irradiated with UVB at a strength of 11 mJ/cm^2, 20 mJ/cm^2, and 30 mJ/cm^2, respectively, two times, cultured for 2 weeks, detached from the culture dish and counted, and the same number of cells were collected in a microtube, disrupted by adding RIPA assay buffer (Millipore, 20-188) thereto, and subjected to the centrifugation at 13,500 rpm for 30 minutes to obtain a precipitate. The precipitate was dissolved in a 1N sodium hydroxide (NaOH) solution, and the colors were compared to one another (FIG. 4a), and the absorbance was measured at 450 nm to compare the content of melanin (FIG. 4b). […]

p16 and p21 = p16 and p21 mRNA expression (Q-PCR) in senescent melanocytes after treatment with whitening material; details: treated for 2 weeks from 48 h after final UVB irradiation, four times at an interval of 3 days; p<0.05 / p<0.01 (FIG. 6)
Method: Human primary melanocytes (Life Technologies, CA, USA) were cultured in a 5% CO2 incubator at room temperature by using M-254 medium (Gibco BRL, NY, USA) supplemented with human melanocyte growth supplement (HMGS) (Gibco BRL, NY, USA), placed on a 100 mm culture dish so that the number of cells was 2×10^5, allowed to attach to the dish wall for the night, and irradiated with UVB at a strength of 11 mJ/cm^2, 20 mJ/cm^2, and 30 mJ/cm^2 two times at an interval of 24 hours. cDNA was prepared by obtaining RNA from cells 2 weeks after being irradiated with UVB at a strength of 20 mJ/cm^2 two times at an interval of 24 hours, and a change in mRNA level was measured by Q-PCR (Applied biosystems, 7500 Fast) by using p16 and p21 specific primers. As the Q-PCR experiment, a cycle at 95° C. for 15 seconds and at 60° C. for 60 seconds was repeatedly conducted 40 times in total, and the relative value of an increase in gene expression as compared to that of a control group was measured.

β-galactosidase activity [1]: decreases
SMILES: COc1cc(/C=C/C(=O)Oc2cc(C)ccc2C(C)C)cc(OC)c1OC [Material A, melasolv]
melanin content [2]: significantly decreases to the level of that of the control group
increased gene expression (p16 and p21) (p16 and p21): significantly inhibited
